Data on 1 compound can be found in patent US6057335A, “Pyrazole derivatives” (Banyu Pharmaceutical Co., Ltd., priority 1996, dated 2000).

The test addresses T1, human NPY Y5 receptor (Homo sapiens, UniProt Q15761).
T1 construct: expressed in transfected cells; host or cells: COS-7, CHO and LM(tk-)
T1 sequence (Q15761 1-445): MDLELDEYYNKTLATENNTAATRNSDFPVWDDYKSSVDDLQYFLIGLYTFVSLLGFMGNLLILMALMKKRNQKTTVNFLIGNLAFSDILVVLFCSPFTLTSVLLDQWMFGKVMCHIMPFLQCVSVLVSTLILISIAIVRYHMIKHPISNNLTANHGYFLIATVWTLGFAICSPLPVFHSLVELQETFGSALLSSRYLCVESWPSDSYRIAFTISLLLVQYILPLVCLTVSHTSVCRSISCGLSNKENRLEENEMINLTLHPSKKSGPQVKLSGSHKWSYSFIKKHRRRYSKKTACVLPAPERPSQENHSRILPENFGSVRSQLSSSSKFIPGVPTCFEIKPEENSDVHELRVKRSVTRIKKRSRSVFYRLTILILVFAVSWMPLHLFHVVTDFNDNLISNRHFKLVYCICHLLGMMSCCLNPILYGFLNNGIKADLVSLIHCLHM
As to the kind of experiment: test of inhibition of NPY binding ([125I] peptide YY binding to NPY Y5 receptor). To be noted: [125I] peptide YY 20,000 cpm, 25° C., 2 hours, pH 7.4, membrane preparations of cells expressing NPY Y5 receptor; read-out: IC50 value (concentration needed to inhibit 50% of the specific binding to the peptide YY). From the text: Pharmacological Test Example 1 (test of inhibition of NPY binding)
cDNA Sequence encoding a human NPY Y5 receptor [International Publication WO 96/16542] was cloned into expression vectors pcDNA3, pRc/RSV (manufactured by Invitrogen) and pCI-neo (manufactured by Promega). Using the cationic lipid method [see Proceedings of the National Academy of Science of the United States of America, vol.84, p.7413 (1987)], host cells COS-7, CHO and LM(tk-) (American Type Culture Collection) were transfected with the thus prepared expression vectors to obtain cells in which the NPY Y5 receptor had been expressed.
Each of the membrane preparations thus prepared from the cells in which the NPY Y5 receptor had been expressed was incubated together with each compound to be tested and 20,000 cpm of [^125 I] peptide YY (manufactured by Amersham) at 25° C. for 2 hours in an assay buffer solution (25 mM HEPES buffer, pH 7.4, containing 10 mM magnesium chloride, 1 mM phenylmethylsulfonyl fluoride and 0.1% bacitracin) and then, the reaction mixture was filtered through a glass filter GF/C. After washing with 50 mM Tris buffer, pH 7.4, containing 0.3% BSA, radioactivity on the glass filter was measured using a gamma counter. […]

Molecules are shown by their SMILES.

For the compound `COc1ccc(-c2cc(NC(=O)C3Cc4cc5ccccc5cc4C3)n[nH]2)cc1OC` [Example 30, 3-(2,3-dibydro-1H-cyclopenta[b]naphthalen-2-yl)carbonylamino-5-(3,4-dimethoxyphenyl)pyrazole], the IC50 is 2.5 nM.
